Laboratory results: paper PMC11729425 (ACS Pharmacology & Translational Science, 2024)

How the values were obtained:
[1] = Chronic (20 weeks) oral administration in aged mice: body weight, food intake, organ mass, plasma citrulline; format: in vivo, C57BL/6JRj mice; conditions: 1 mg/kg in the food
Protocol: Figure 2 Chronic oral administration of ALT-007 enhances physical fitness in aged mice. (A) Schematic representation of the study time-line. Compounds were mixed in the food, ALT-007 at 1 mg/kg and DMSO at equivalent volume. At week 0: young mice were 2 months old, and the old mice were 18 months old. (B) Body weight curve over the course of the study (20 weeks). (C) Food intake curve throughout the study. (D–G) Organ mass at sacrifice (week 20), normalized to body weight. (H) Oral glucose tolerance test (oGTT) performed at week 17. (I) Best performance during hanging time normalized to BW at week 7. (J) Best performance during grip strength on the 4 limbs normalized to BW at week 8. (K) Rotarod’s best latency time at week 9. (L) VO2Max performed at week 11. (M) Uphill maximum running time performed at week 13. N = 9 per group. (N) Difference of CK level after—before 90 min downhill running performed at week 15. N = 6 in young, N = 8 in DMSO and N = 7 in ALT-007-treated groups. (O–Q) Measurement of kCAL/h at night (O) and at day (P) and movement recording in x, y, z (Q) during 24 h in CLAMS at week 19. N = 12 per group unless specified otherwise. Quantitative data are expressed as median with IQR. *P < 0.05, **P < 0.01, ***P < 0.001, ****P < 0.0001. ANOVA test was used for multiple comparison, and the Mann–Whitney U test when comparing 2 groups. All tests were 2 sided.
Young (2 month-old) and aged (18 month-old) male C57BL/6JRj mice were purchased from Janvier Laboratories. Housing conditions involved maintaining two to five animals per cage under a 12 h light/dark cycle, with continuous access to food and water. Animals were fed a standard chow diet (Safe 150) with the following composition: 56.9% nitrogen-free extract, of which 41.0% was starch and 3.4% was sugars, 18.0% crude protein, 4.8% crude fat, 4.2% crude ash, 4.1% crude fiber and 12.0% moisture. Young (2 month-old) and old (18 month-old) mice were monitored for 20 weeks. Mice were administered either DMSO as a control or ALT-007. ALT-007 was dissolved in DMSO or DMSO alone were mixed in the food (1 mg/kg for ALT-007 or equivalent volume of DMSO for controls). Body weight and food intake measurements were recorded weekly until sacrifice.
Prior to sacrifice, mice were fasted for 4 h in the morning. Animals were sacrificed between 1:30 and 4 p.m. Mice were anesthetized with isoflurane, followed by a complete blood draw from the vena cava and perfusion with cold phosphate-buffered saline. Immediately thereafter, various tissues including liver, kidney, spleen, heart, brain, gastrocnemius muscle and tibialis anterior muscle were harvested, weighted and promptly flash-frozen in liquid nitrogen.
1.1. Supplementary Figure 1
(A) Citrulline levels in the plasma of mice treated with ALT-007 at 1 mg/kg or vehicle […]

[2] = system: gastrocnemius muscles of aged mice; test: RNAseq / gene set enrichment analysis of gastrocnemius muscle of aged mice; format: in vivo, C57BL/6JRj mice
Protocol: Figure 3 ALT-007 preserves muscle mass and rewires skeletal muscle gene expression during aging. (A) Lean mass measured by echoMRI after 11 weeks of treatment (ALT-007:1 mg/kg; DMSO: equivalent volume, for 20 weeks). (B) Gastrocnemius and (C) Tibialis anterior muscle weight after 20 weeks of treatment. N = 12 per group. (D) Total ceramide levels measured in the gastrocnemius muscle. (E) Volcano plot of mitochondrial, proteostasis, amino acids, biosynthetic processes, and neuronal-related gene sets highlighted. (F,G) Gene set enrichment analysis (GSEA) of (F) pathways involved in protein folding and degradation and (G) neurogenesis pathways in the skeletal muscle of mice treated with ALT-007 (N = 5 in DMSO and N = 4 in ALT-007-treated groups). Adjusted P values in GSEA comparison are indicated as follows: *adjusted P < 0.05; **adjusted P < 0.01; ***adjusted P < 0.001.
RNA seq analysis was performed as previously described. Changes in cell composition were assessed by gene set enrichment analysis (GSEA) with the clusterProfiler package (Yu G. et al., 2012) and the MsigDB v7.5.1 mouse cell type signature set, accessed through the msigdbr package was performed. Only the gene sets relevant to skeletal muscle and neuronal cell types were retained.
1.2. Supplementary Figure 2
Gene set enrichment analysis using the MsigDB mouse cell type signature sets. Only the gene sets relevant to skeletal muscle and neuronal cell types were retained.
GSEA was performed with the cluserProfiler package and gene sets were accessed through the MsigDBr package.
(1 picture or pasted object on this page, not shown here)

[3] = system: N2 wild-type C. elegans; test: Lifespan measurements in C. elegans; format: in vivo, Caenorhabditis elegans
Protocol: Lifespan assays were conducted at 20 °C unless otherwise noted. Synchronous populations were generated by hypochlorite treatment of gravid adults to obtain tightly synchronized embryos, which were then allowed to develop into adulthood under defined conditions. 20–25 worms were placed on NGM plates containing 5-FU seeded with E. coli OP50 bacteria. ALT-007 at a final concentration of 5 μM was added to the top of the plates diluted in DMSO, and DMSO was used at the same concentration as a control. Each condition included at least 170 animals per experiment.
The day of egg collection was designated as t = 0. Animals were transferred to fresh plates every 3 days and examined daily for touch-provoked movement and pharyngeal pumping, until death. Worms that died due to internal hatching of eggs, extruded gonads, or desiccation from crawling off the plate were censored accordingly. Each survival assay was repeated at least twice, and figures show representative results.
Survival curves were generated using the Kaplan–Meier product-limit method. The log-rank (Mantel–Cox) test was used to assess differences in survival and calculate P values. Statistical analyses and lifespan values were determined using GraphPad Prism 10 software. Complete lifespan statistics are presented in Supporting Information Table 1.

[4] = system: GMC101 worms; test: Paralysis scoring in amyloid beta expressing GMC101 worms; format: in vivo, Caenorhabditis elegans; conditions: GMC101, 1 μM, day 1 of adulthood
Protocol: At least 100 worms per condition were manually scored for paralysis after poking. Results are representative of data obtained from at least two independent experiments. ALT-007 was administered at 1 μM and DMSO was used as a control. GMC101 animals were used and scoring was performed at day 1 of adulthood.

[5] = design: method as in PMID 29669694; conditions: compared to Myriocin; cited from earlier work
[6] = design: method as in PMID 29669694; conditions: cited from earlier work
[7] = gastrocnemius of aged mice, ALT-007 vs DMSO

SMILES: COc1cc(C(=O)N2CC[C@H](NC(=O)c3ccccc3OC(F)(F)F)c3c2cnn3C(C)C)cnc1OC [ALT-007]
- body weight ([1]; 20 weeks): stable body weight
- food intake ([1]; 20 weeks): absence of changes in food intake
- gastrointestinal (GI) toxicity by plasma citrulline levels ([1]; 20 weeks, vs untreated mice): no gastrointestinal (GI) toxicity
- tissue weights relative to control ([1]; at sacrifice week 20, normalized to body weight): absence of changes
- neurogenesis pathways in the muscle, GSEA [2, 7]: remarkable upregulation of neurogenesis pathways
- proteostasis pathways (protein folding and degradation), GSEA [2, 7]: enrichment of several proteostasis pathways
- ribosomal and translation pathways, GSEA [2, 7]: significantly attenuated
- neuronal cells in the skeletal muscles (GSEA, MsigDB mouse cell type signature sets) ([2]; old treated vs old untreated mice): increases neuronal cells
- toxicity for animal development ([3]; C. elegans, administration at the embryo stage): nontoxic for animal development
- maximal lifespan ([3]; N2 wild-type, 5 μM, 20 °C): significantly increased
- median lifespan ([3]; N2 wild-type, 5 μM, 20 °C): significantly increased
- paralysis induced by amyloid beta aggregation [4]: reduce paralysis
- metabolic stability [5]: improved
- oral bioavailability [6]: orally bioavailable
- toxicity in long-term dosing ([6]; rodents): non-toxic in long-term dosing in rodents
